Columns and labels:
L-selectin IgG chimera = target: T1, L-selectin IgG chimera (Homo sapiens, UniProt P14151); experiment: ELISA: blocking of L-selectin IgG chimera binding to 2,3sLex glycolipid
T1 sequence (P14151 39-332 limits assumed): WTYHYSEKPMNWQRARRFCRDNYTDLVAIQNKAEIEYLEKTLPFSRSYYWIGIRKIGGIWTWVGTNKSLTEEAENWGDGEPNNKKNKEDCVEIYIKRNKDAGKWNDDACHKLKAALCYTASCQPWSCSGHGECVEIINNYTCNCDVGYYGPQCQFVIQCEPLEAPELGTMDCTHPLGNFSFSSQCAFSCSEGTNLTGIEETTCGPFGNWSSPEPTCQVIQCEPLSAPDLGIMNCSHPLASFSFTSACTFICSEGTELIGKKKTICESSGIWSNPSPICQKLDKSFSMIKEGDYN
Description: (§1) An ELISA assay was employed that uses recombinant fusion proteins composed of extracellular portions of the human selectins joined to human immunoglobulin heavy chain CH3, CH2, and hinge regions. See, for example, Walz et al., Science (1990) 250:1132; Aruffo et al., Cell (1991) 67:35; Aruffo et al., Proc. Natl. Acad. Sci. USA (1992) 89:2292. The assay is well known in the art, and generally consists of the following three steps:
(§2) I. 2,3sLex glycolipid (25 picomole/well) was transferred into microtiter wells as solutions and then evaporated off. Excess, which remained unattached, was washed off with water. The wells were then blocked with 5% BSA at room temperature for an hour and then washed with PBS containing 1 mM calcium.
II. […]
(§3) The positive control is the signal produced by the soluble receptor when it is allowed to react with 2,3sLex glycolipid in the microtiter wells in the absence of any inhibitor. […] The signal produced by the receptor that had been previously treated with an inhibitor (recorded as O.D.), was divided by the signal produced by the positive control and multiplied by 100 to calculate the % receptor bound to the well, or as expressed in the figures, the per cent of control binding. […]

[1] = test system: neutrophil migration to the peritoneal cavity; experiment: murine thioglycollate induced peritonitis model; type: in vivo, female Swiss Webster mice; conditions: FIG. 7; for inhibition of neutrophil migration into the peritoneum: compound in PBS by tail vein, thioglycollate intraperitoneally, cells counted after three hours
Description: The efficaciousness of GM 1221, and GM 1398 was shown using a murine thioglycollate induced peritonitis model. The assay materials and methods are known in the art, or are generally described by Lewinsohn, D. et al., J. Immun., 138:4313-4321 (1987), or Watson, S. et.al., Nature 349:164-166 (1991).
This assay measures the abili:ty of the compounds to inhibit neutrophil migation to the peritoneal cavity, the migration being initiated by the presence of thioglycollate in the peritoneal cavity. Thioglycollate is a known and effective inflammatory agent that causes neutrophil migration into the mouse peritoneum when it is administered intraperitoneally. Lewinsohn, D. et al., J. Immun. (1987) 138:4313-4321.
Briefly, female Swiss Webster mice weighing about 25 grams were injected in the tail vein with 200 ul of phosphate buffered saline (PBS) with or without the appropriate compound. The pH of the solutions was adjusted to neutrality by the addition of either NaOH or HCL and sterilized by filtration through a 0.2 u filter.
Immediately following injection with the appropriate compound or PBS, the mice were injected intraperitoneally with 1 ml of thioglycollate medium prepared as described by the manufacturer, BBL. Three hours following injection of the thioglycollate solution the mice were sacrificed by CO2 asphyxiation, and the number of cells in the peritoneum removed by lavage with 5 ml of heparinized (5U/ml) 0.9%. sodium chloride solution containing 0.1% bovine serum albumin. Cell number was determined using a Coulter Counter. The cells were prepared for counting by diluting the lavage fluid with 1:50 of a commercial physiological isotonic solution, Isoton II, and the cells lysed by adding S/P Lysing and Hemoglobin Reagent (1:100 final dilution). Cell nuclei were counted in a sized window with lower and upper limits set at 3.9 and 5.7 um, respectively.

E-selectin IgG chimera = experiment: ELISA: blocking of E-selectin IgG chimera binding to 2,3sLex glycolipid; set-up: species or system human; conditions: FIG. 4; several concentrations
Description: as §1, §2
II. […]
as §3

Row | inhibitory activity on L-selectin binding at all four concentrations tested (L-selectin IgG chimera; FIG. 6, all four concentrations of the compound tested) | SMILES | inhibition of neutrophil migration into the peritoneum [1] | inhibition of L-selectin binding to 2,3sLex glycolipid (per cent of control binding) (L-selectin IgG chimera; FIG. 5 and FIG. 6, several concentrations) | inhibition of E-selectin binding to 2,3sLex glycolipid (per cent of control binding) (E-selectin IgG chimera) | more neutrophil migration inhibited than GM 1221 ([1]; relative to GM 1221)
1 | significant inhibitory activity | CC(OCCCCCCOC1O[C@@H](C)[C@@H](O)[C@@H](O)[C@@H]1O)C(=O)O (stereo partly drawn) [GM 1221] | inhibit neutrophil migration into the peritoneum |  |  | 
2 |  | CC(=O)NC1C(O)CC(OCCCCCCOC2OC(C)C(O)C(O)C2O)(C(=O)O)OC1C(O)C(O)CO [GM 1398, 1-O-α-Neu5Ac-(6-O-α-L-Fucopyranosyl)-Hexane] | inhibit neutrophil migration into the peritoneum | inhibit L-selectin binding in a concentration dependent manner | inhibit E-selectin binding | about 30%
